From patent US8809341B2, “2,4-pyrimidinediamine compounds and uses as anti-proliferative agents” (Rigel Pharmaceuticals, Inc., priority 2003, dated 2014)
Where two headings read alike, the source gives them in different places. Each block holds one molecule with its values, some of them ahead of it.

Legend:
Assay type in all cases: cell-based
[1] = system: A549 cells; assay: in vitro antiproliferation assay, A549 (lung)
How it was run: (§1)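 IC50 values came from standard antiproliferation testing in cultured tumour cells; the A549 and H1299 lines are of lung origin.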

[2] = system: H1299 cells; assay: in vitro antiproliferation assay, H1299 (lung)
How it was run: as §1

[3] = system: HCT116; assay: in vitro antiproliferation assay, HCT116 (colon)
Method: The IC50 values of various compounds against a various different tumor cell lines were determined using standard in vitro antiproliferation assays. The tumor cell lines tested were as follows: A549 (lung); H1299 (lung), ACHN (kidney/p53 wt), CAKI (renal cell carcinoma), NCI-H460 (lung); HCT116 (colon/p53w0; HELA (cervix/p53 wt), HUH7 (liver/p53 wt), HUVEC (primary endothelial), LNCAP (prostate), HT-29 (colon); MCF-7 (breast); MCF-7 (breast/ER positive), MDA MB435S (breast); MDA MB231 (breast/ER negative), DU145 (prostate); BxPC-3 (pancreatic); SKOV-3 (ovarian); HepG2 (hepatic), NDHF primary normal human dermal fibroblast), SKMEL28 (breast/p53mut), SKMEL5 (breast/p53 wt), U20S (bone) and PC3 (prostate). […] A blank indicates the specified compound was not tested against the specified cell line.
Many of the compounds were tested against other cell lines. Their activity is reported in TABLE 15, below, where +”, “−”, “−/+” or “+/−” values are as described for TABLES 1-14. Where the cell line includes a value in a parenthetical, the value indicates the seeding density at which the assay was performed

[4] = IC50 class against A549 (lung) tumor cells
[5] = IC50 class against H1299 (lung) tumor cells
[6] = HCT116 (colon), read-out: HCT116
[7] = Table 5, in vitro antiproliferation, A549 (lung) cells
[8] = Table 5, in vitro antiproliferation, H1299 (lung) cells
[9] = Table 7, in vitro antiproliferation, A549 (lung) cells
[10] = Table 7, in vitro antiproliferation, colon cells, read-out: HTC116
[11] = Table 7, in vitro antiproliferation, H1299 (lung) cells
[12] = A549 (lung) cells, in vitro antiproliferation

IC50 ([1]; in vitro antiproliferation, A549 (lung) cells, Table 4, compounds with no designated stereochemistry tested as racemate): ≤ 20 µM
IC50 ([2]; in vitro antiproliferation, H1299 (lung) cells, Table 4, compounds with no designated stereochemistry tested as racemate): ≤ 20 µM
IC50 [3, 6]: > 20 µM
SMILES: Cc1c(Cl)cc(Nc2ncc(F)c(Nc3ccc4c(c3)NC(=O)C(C)(C)O4)n2)cc1Cl [compound 306]

IC50 [1, 9]: > 20 µM
IC50 [3, 6]: > 20 µM
SMILES: COC(=O)c1cc2cc(Nc3ncc(F)c(Nc4ccc(Cl)cc4)n3)ccc2o1 [compound 651]

IC50 [1, 9]: > 20 µM
IC50 [3, 6]: > 20 µM
SMILES: COC(=O)c1cc2cc(Nc3ncc(F)c(Nc4ccc(Cl)c(Cl)c4)n3)ccc2o1 [compound 652]

IC50 [1, 9]: ≤ 20 µM
IC50 [2, 11]: ≤ 20 µM
IC50 [3, 10]: ≤ 20 µM
SMILES: COc1cc(Nc2nc(Nc3cccc4cc(C(=O)N(C)CCO)[nH]c34)ncc2F)cc(OC)c1 [compound 659]

IC50 [1, 9]: ≤ 20 µM
IC50 [2, 11]: ≤ 20 µM
IC50 [3, 10]: ≤ 20 µM
SMILES: COc1cc(Nc2nc(Nc3cccc4cc(C(=O)NC(C)(C)CO)[nH]c34)ncc2F)cc(OC)c1 [compound 660]

IC50 [1, 12]: ≤ 20 µM
IC50 [3, 6]: ≤ 20 µM
SMILES: COc1ccc(Nc2ncc(F)c(Nc3ccc(OC)c(OC)c3)n2)cc1OC [compound 710]

IC50 [1, 12]: ≤ 20 µM
IC50 [3, 6]: ≤ 20 µM
SMILES: CNC(=O)COc1cccc(Nc2ncc(F)c(Nc3cccc(OC)c3)n2)c1 [compound 755]

IC50 [1, 12]: ≤ 20 µM
IC50 [3, 6]: ≤ 20 µM
SMILES: COc1cc(Nc2ncc(F)c(Nc3cc(OC)cc(OC)c3)n2)cc(OC)c1 [compound 839]

IC50 [1, 12]: ≤ 20 µM
IC50 [3, 6]: ≤ 20 µM
SMILES: COc1cc(Nc2nc(Nc3cc(Cl)cc(Cl)c3)ncc2F)cc(OC)c1 [compound 847]

IC50 [1, 12]: ≤ 20 µM
IC50 [3, 6]: ≤ 20 µM
SMILES: COc1cc(Nc2nc(Nc3cc(C)cc(C(F)(F)F)c3)ncc2F)cc(OC)c1 [compound 848]

IC50 ([1]; A549 (lung) cells, antiproliferation): ≤ 20 µM
IC50 [3, 6]: ≤ 20 µM
SMILES: CNC(=O)COc1cccc(Nc2ncc(F)c(Nc3cc(C)c(O)c(Cl)c3)n2)c1 [compound 991]

The remaining lines, values behind:

SMILES: COC(=O)N1CCN(c2ccc(Nc3ncc(F)c(NC4CC4)n3)cc2)CC1 [compound 104]
IC50 [1, 4]: ≤ 20 µM
IC50 [2, 5]: ≤ 20 µM
IC50 [3, 6]: > 20 µM

SMILES: O=C(COc1cccc(Nc2ncc(F)c(NC3CCC3)n2)c1)NC1CC1 [compound 110]
IC50 [1, 4]: ≤ 20 µM
IC50 [2, 5]: ≤ 20 µM
IC50 [3, 6]: ≤ 20 µM

SMILES: Fc1cnc(Nc2ccc(Cl)c(Cl)c2)nc1NC1CCC1 [compound 111]
IC50 [1, 4]: ≤ 20 µM
IC50 [2, 5]: ≤ 20 µM
IC50 [3, 6]: ≤ 20 µM

SMILES: COc1ccc(Nc2ncc(F)c(NC3CCC3)n2)cc1Cl [compound 112]
IC50 [1, 4]: ≤ 20 µM
IC50 [2, 5]: ≤ 20 µM
IC50 [3, 6]: ≤ 20 µM

SMILES: O=C(COc1cccc(Nc2ncc(F)c(Nc3ccc4c(c3)OCCO4)n2)c1)N1CCOCC1 [compound 493]
IC50 [1, 7]: < 20 µM
IC50 [2, 8]: ≤ 20 µM
IC50 [3, 6]: < 20 µM

SMILES: Fc1cnc(Nc2cccc(OCCN3CCOCC3)c2)nc1Nc1ccc2c(c1)OCCO2 [compound 494]
IC50 [1, 7]: ≤ 20 µM
IC50 [2, 8]: ≤ 20 µM
IC50 [3, 6]: ≤ 20 µM

SMILES: CNC(=O)COc1cccc(Nc2ncc(F)c(Nc3ccc4c(c3)OCCO4)n2)c1 [compound 495]
IC50 [1, 7]: < 20 µM
IC50 [2, 8]: ≤ 20 µM
IC50 [3, 6]: ≤ 20 µM

SMILES: OCc1cc(CO)cc(Nc2ncc(F)c(Nc3ccc4c(c3)OCCO4)n2)c1 [compound 529]
IC50 [1, 7]: ≤ 20 µM
IC50 [2, 8]: ≤ 20 µM
IC50 [3, 6]: ≤ 20 µM

SMILES: OCc1cc(CO)cc(Nc2ncc(F)c(Nc3ccc4c(c3)OC(F)(F)C(F)(F)O4)n2)c1 [compound 534]
IC50 [2, 8]: ≤ 20 µM
IC50 [3, 6]: ≤ 20 µM

SMILES: CCOC(=O)c1cc2cccc(Nc3ncc(F)c(Nc4cccc(O)c4)n3)c2[nH]1 [compound 648]
IC50 [1, 9]: ≤ 20 µM
IC50 [3, 10]: ≤ 20 µM

SMILES: CCOC(=O)c1cc2cccc(Nc3ncc(F)c(NCCO)n3)c2[nH]1 [compound 667]
IC50 [1, 9]: > 20 µM
IC50 [2, 11]: > 20 µM
IC50 [3, 10]: > 20 µM

SMILES: COC(=O)c1cc2cc(Nc3ncc(F)c(Nc4ccc5c(c4)NC(=O)C(C)(C)O5)n3)ccc2o1 [compound 677]
IC50 [1, 9]: ≤ 20 µM
IC50 [3, 6]: > 20 µM
IC50 [3, 10]: > 20 µM

SMILES: Fc1cnc(Nc2cccc(Cl)c2)nc1Nc1cccc(Cl)c1 [compound 717]
IC50 [1, 12]: ≤ 20 µM
IC50 [3, 6]: > 20 µM

SMILES: CNC(=O)COc1cccc(Nc2ncc(F)c(Nc3cccc(O)c3)n2)c1 [compound 732]
IC50 [1, 12]: ≤ 20 µM
IC50 [3, 6]: ≤ 20 µM
